Bridge positions count the residues as written; N and C are the ends. Peptide text beside a SMILES is read from it.
Biological target: ATP-dependent translocase ABCB1 (Homo sapiens, UniProt P08183)
Assay: TP_TRANSPORTER: drug resistance in MCF-7/Dox cells
Format: functional, cell-based

Chain of ATP-dependent translocase ABCB1 (P08183 whole entry): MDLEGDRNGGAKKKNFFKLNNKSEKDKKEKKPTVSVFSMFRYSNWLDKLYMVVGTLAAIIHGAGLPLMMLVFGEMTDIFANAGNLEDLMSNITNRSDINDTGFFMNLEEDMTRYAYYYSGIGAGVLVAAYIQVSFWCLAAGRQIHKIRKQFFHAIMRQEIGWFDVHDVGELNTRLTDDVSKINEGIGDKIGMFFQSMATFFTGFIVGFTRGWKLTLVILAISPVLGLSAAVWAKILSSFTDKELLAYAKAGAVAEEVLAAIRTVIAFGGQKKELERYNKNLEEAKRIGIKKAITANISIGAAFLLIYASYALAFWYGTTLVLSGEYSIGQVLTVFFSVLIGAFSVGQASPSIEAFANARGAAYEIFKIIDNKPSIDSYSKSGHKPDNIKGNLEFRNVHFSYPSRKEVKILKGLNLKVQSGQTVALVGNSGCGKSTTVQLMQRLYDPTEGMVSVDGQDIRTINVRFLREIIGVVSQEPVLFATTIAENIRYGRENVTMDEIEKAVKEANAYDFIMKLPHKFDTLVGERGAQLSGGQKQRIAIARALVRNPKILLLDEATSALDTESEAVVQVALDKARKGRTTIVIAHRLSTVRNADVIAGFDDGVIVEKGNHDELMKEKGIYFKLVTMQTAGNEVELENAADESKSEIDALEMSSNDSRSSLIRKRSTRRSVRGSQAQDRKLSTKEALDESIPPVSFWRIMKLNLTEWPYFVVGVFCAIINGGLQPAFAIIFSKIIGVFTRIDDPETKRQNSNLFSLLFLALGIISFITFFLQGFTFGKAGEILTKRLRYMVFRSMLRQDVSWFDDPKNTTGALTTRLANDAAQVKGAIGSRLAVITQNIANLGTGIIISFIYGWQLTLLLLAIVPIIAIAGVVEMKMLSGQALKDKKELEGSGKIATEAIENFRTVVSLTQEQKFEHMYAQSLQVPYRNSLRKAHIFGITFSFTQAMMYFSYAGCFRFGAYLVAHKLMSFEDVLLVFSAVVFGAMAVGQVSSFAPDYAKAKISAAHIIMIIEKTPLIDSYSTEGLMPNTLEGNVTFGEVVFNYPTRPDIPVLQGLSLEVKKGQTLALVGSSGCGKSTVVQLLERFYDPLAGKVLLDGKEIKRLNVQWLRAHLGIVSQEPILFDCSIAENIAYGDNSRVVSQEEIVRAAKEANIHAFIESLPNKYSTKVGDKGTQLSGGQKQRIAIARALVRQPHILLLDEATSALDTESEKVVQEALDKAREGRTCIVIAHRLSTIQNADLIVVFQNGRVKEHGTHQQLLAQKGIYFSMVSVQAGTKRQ

| Compound | Activity |
| --- | --- |
| COc1cccc2c1C(=O)c1c(O)c3c(c(O)c1C2=O)C[C@@](O)(C(=O)CO)C[C@@H]3O[C@H]1C[C@H](N)[C@H](O)[C@H](C)O1 [DOXORUBICIN] | substrate [+] |
| H-FLGALFKALSKLL-OH | is not a substrate [-] |
| CC[C@H](C)[C@@H]1NC(=O)[C@H](CCCCN)NC(=O)[C@@H](NC(=O)[C@@H](NC(=O)[C@@H](NC(=O)[C@@H](NC(=O)[C@@H]2CCCN2C(=O)[C@H](CC(C)C)NC(=O)[C@H](Cc2ccccc2)NC(=O)[C@H](CC(N)=O)NC(=O)[C@H](C)NC(=O)[C@H](C)NC(=O)[C@H](CC(C)C)NC(=O)CNC(=O)[C@H](C)NC(=O)[C@H](CC(C)C)NC(=O)[C@H](CC(C)C)NC(=O)[C@@H]2CCCN2C(=O)[C@H](CC(C)C)NC(=O)[C@@H](N)Cc2ccccc2)[C@@H](C)O)[C@@H](C)CC)[C@@H](C)CC)CSSC[C@@H](C(=O)O)NC(=O)[C@H](CCCCN)NC(=O)[C@H](Cc2ccc(O)cc2)NC(=O)[C@H](CO)NC1=O [GAEGURIN 6] (H-FLPLLAGLAANFLPTIICKISYKC-OH; disulfide 18-24) | is not a substrate [-] |

Results, then the compound that gave them:

| Activity | Compound |
| --- | --- |
| substrate [+] | CC(=O)O[C@H]1C(=O)[C@@]2(C)[C@H]([C@H](OC(=O)c3ccccc3)[C@]3(O)C[C@H](OC(=O)[C@H](O)[C@@H](NC(=O)c4ccccc4)c4ccccc4)C(C)=C1C3(C)C)[C@]1(OC(C)=O)CO[C@@H]1C[C@@H]2O [PACLITAXEL] |
| is not a substrate [-] | H-FLGALFKALCKLL-OH |
